# Data taken from patent US5439930A, “Biologically active n-acylprolydipeptides having antiamnestic, antihypoxic and anorexigenic effects” (Russian-American Institute for New Drug Development, priority 1992, dated 1995).
# Where a SMILES comes first, the peptide text is derived from it. The star is where a group is joined. PhAc = O=C(Cc1ccccc1)*
# Test system: rat's offspring after prenatal alcoholization
# Assay: Open field locomotor activity and habituation of offspring after prenatal alcoholization
# Assay type: in vivo, rats
# Procedure: The cognitive impairment in the rat's offspring was provoked by prenatal alcoholization or prenatal hypoxia. Prenatal alcoholization was achieved by peroral administration of 5 g/kg/day (25% solution) ethanol to pregnant female rats during whole pregnancy. To achieve prenatal hypoxia the rats on the 15th day of pregnancy were placed into hypobaric barometric chamber (the "elevating" up 8500 m altitude; exposition for 2 hours).
# The treatment of the offspring was performed from 8th day to 20th day. Compound I was administered in the dose of 0.1 mg/kg/day subcutaneously. The testing was performed on two-month old rats.
# Chronic postnatal administration of Compound I restored the normal course of the habituation (Table 10).
smiles,measurement,setting,value
"CCOC(=O)CNC(=O)[C@@H]1CCCN1C(=O)Cc1ccccc1 [Compound I, N-phenacetyl-L-prolylglycine ethyl ester] (PhAc-Pro-Gly-OEt)",Number of horizontal movements,"day 1 of observation, chronic postnatal administration",8.2
same,Number of horizontal movements,day 5 of observation,3.7
same,Coefficient of Habituation,open field,0.45
